For 14 compounds, IC50 results are on record in patent publication US11976083B2, “Inhibitors of peptidylarginine deiminases” (Gilead Sciences, Inc., priority 2020, dated 2024).

The structures appear in SMILES notation.

Broadly, the IC50 is the midpoint of a concentration-inhibition curve.

T1 sequence (Q9UM07 2-663): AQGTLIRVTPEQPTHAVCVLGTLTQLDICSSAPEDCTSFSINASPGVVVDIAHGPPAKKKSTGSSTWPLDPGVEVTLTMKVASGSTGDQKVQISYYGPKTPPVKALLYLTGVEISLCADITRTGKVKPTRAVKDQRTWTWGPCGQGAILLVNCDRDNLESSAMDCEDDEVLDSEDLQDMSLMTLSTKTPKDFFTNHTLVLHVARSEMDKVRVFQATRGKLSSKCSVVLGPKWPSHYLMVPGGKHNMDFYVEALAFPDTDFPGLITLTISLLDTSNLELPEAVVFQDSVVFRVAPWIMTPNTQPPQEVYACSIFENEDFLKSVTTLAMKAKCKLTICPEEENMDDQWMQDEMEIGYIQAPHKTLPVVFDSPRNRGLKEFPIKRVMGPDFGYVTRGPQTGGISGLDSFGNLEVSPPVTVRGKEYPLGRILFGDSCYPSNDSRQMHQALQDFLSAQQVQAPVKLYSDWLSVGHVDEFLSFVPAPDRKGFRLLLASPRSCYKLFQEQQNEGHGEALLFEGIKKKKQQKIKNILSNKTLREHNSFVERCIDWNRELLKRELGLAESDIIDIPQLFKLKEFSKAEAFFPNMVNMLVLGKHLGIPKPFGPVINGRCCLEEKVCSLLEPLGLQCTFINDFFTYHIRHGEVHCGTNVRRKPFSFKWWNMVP

The assay addresses T1, human PAD4 (Homo sapiens, UniProt Q9UM07).
T1 construct: human PAD4 (NM_012387), A2-P663, was PCR amplified; His-SUMO (N, cleaved yes); made in house; host or cells: E. coli BL21(DE3)
Nature of the assay: In vitro PAD4 BAEE biochemical assay. Particulars: BAEE substrate 3 mM, 5 nM PAD4, 2 mM calcium chloride; geometric mean of multiple experiments. An excerpt:
In Vitro PAD4 BAEE Biochemical Assay
The enzymatic activity of human PAD4 was monitored in a biochemical assay in the presence or absence of compounds using the small peptidyl arginine mimic BAEE (Na-Benzoyl-L-arginine ethyl ester hydrochloride) as substrate. PAD4 activity led to deimination of BAEE and release of ammonia. Levels of ammonia were monitored by using an amine coupling reaction and were indicative of PAD4 enzymatic activity.
One hundred nanoliters of test compounds dissolved in DMSO at various concentrations were dispensed into a 384-well black OptiPlate using a Labcyte Echo instrument. Ten microliters of a solution of recombinant PAD4 and calcium chloride diluted in PAD4 assay buffer (50 mM MOPS [3-(N-morpholino) propanesulfonic acid], pH 7.6; 50 mM sodium chloride; 0.05% Tween-20; 2 mM dithiothreitol) was added to the compound-containing plate and was incubated for 30 minutes at 25° C. Ten microliters of a solution of BAEE (Sigma-Aldrich #B4500) diluted in PAD4 assay buffer was then added to start the reaction. Final concentrations were 5 nM PAD4, 2 mM calcium chloride, and 3 mM BAEE. The reaction mixture was incubated at 25° C. for 2 hours and was stopped with the addition of 10 microliters of a solution of 75 mM EDTA (Ethylenediaminetetraacetic acid) in PAD4 assay buffer. Thirty microliters of detection solution (5 mM o-phthalaldehyde, 50 mM MOPS [3-(N-morpholino) propanesulfonic acid], pH 7.6; 50 mM sodium chloride; 0.05% Tween-20; 5 mM dithiothreitol) was then added and the reaction was incubated for 1 hour at 25° C. The level of fluorescent thiol-substituted isoindole resulting from the reaction of ammonia, o-phthalaldehyde, and dithiothreitol was measured on an Envision plate reader (PerkinElmer) with 405 nm excitation and 535 nm emission.
Data were normalized based on maximum inhibition (50 micromolar of the covalent PAD inhibitor BB-Cl-Amidine (Bicker, K. L.; Anguish, L.; Chumanevich, A. A.; Cameron, M. D.; Cui, X.; Witalison, E.; Subramanian, V.; Zhang, X.; Chumanevich, A. P.; Hofseth, L. J.; Coonrod, S. A.; Thompson, P. R. ACS Med. Chem. Lett. 2012, 3, 1081-1085). and no inhibition (DMSO) controls. Least squares curve fittings were performed using a four-parameter variable slope nonlinear regression model. IC50 is defined as the concentration of compound required to inhibit 50% of maximum activity. IC50 values from multiple experiments were averaged by geometric mean and the standard deviation was calculated.
Turning to `C[C@H]1NC(=O)[C@@H]2C[C@H]2CCCCCn2c(-c3nc4cc(C(=O)N[C@H]5CNCC[C@@H]5F)c(F)cc4n3C3C[C@@H]3C(F)F)cc3ccc1nc32` (single isomer, unassigned) [Example 410, 1-[(1~{R},2~{S})-2-(difluoromethyl)cyclopropyl]-6-fluoro-~ {N}-[(3~{S},4~{S})-4-fluoro-3-piperidyl]-2-[(2~{R},5~{R},7~{R})-2-methyl-4-oxo-3,13,19-triazatetracyclo[11.5.2.0^{5,7}.0^{16,20}]icosa-1(19),14,16(20),17-tetraen-14-yl]benzimidazole-5-carboxamide], the IC50 was 51 nM.

For `C[C@H]1NC(=O)[C@@H]2C[C@H]2CCCCCn2c(-c3nc4cc(C(=O)N[C@H]5CNCC[C@@H]5F)c(F)cc4n3[C@H]3C[C@H]3C(F)F)cc3ccc1nc32` (single isomer, unassigned) [Example 412, 1-[(1~{S},2~{R})-2-(difluoromethyl)cyclopropyl]-6-fluoro-~ {N}-[(3~{S),4~{S})-4-fluoro-3-piperidyl]-2-[(2~{R},5~{R},7~{R})-2-methyl-4-oxo-3,13,19-triazatetracyclo[11.5.2.0^{5,7}.0^{16,20}]icosa-1(19),14,16(20),17-tetraen-14-yl]benzimidazole-5-carboxamide], the 50% inhibitory concentration (IC50) was 42 nM. Turning to `C[C@H]1NC(=O)[C@@H]2C[C@H]2CCCC(F)(F)Cn2c(-c3nc4cc(C(=O)N5C[C@H](N)[C@@H]6CC[C@H]5C6)cc(F)c4n3[C@H]3C[C@@H]3C(F)F)cc3ccc1nc32` (single isomer, unassigned) [Example 453, (2~{R},5~{R},7~{R})-14-[5-[(1~{S},4~{R},5~{R})-4-amino-2-azabicyclo[3.2.1]octane-2-carbonyl]-1-[(1~{S},2~{S})-2-(difluoromethyl)cyclopropyl]-7-fluoro-benzimidazol-2-yl]-11,11-difluoro-2-methyl-3,13,19-triazatetracyclo[11.5.2.0^{5,7}.0^{16,20}] icosa-1(19),14,16(20),17-tetraen-4-one], the IC50 is 53 nM. To `COc1cc(C(=O)N[C@H]2CNCC[C@@H]2F)cc2nc(-c3cc4ccc5nc4n3CCCCC[C@H]3CC[C@@H]3C(=O)N[C@@H]5C)n(C)c12` (single isomer, unassigned) [Example 486, ˜{N}-[(3˜{S},4˜{S})-4-fluoro-3-piperidyl]-7-methoxy-1-methyl-2-[(2˜{R},5˜{S},8˜{S})-2-methyl-4-oxo-3,14,20-triazatetracyclo[12.5.2.0^{5,8}.0^{17,21}]henicosa-1(20),15,17(21),18-tetraen-15-yl]benzimidazole-5-carboxamide] belongs 110 nM; to `COc1cc(C(=O)N[C@H]2CNCC[C@@H]2F)cc2nc(-c3cc4ccc5nc4n3CCCCC[C@@H]3CC[C@H]3C(=O)N[C@@H]5C)n(C)c12` (single isomer, unassigned) [Example 487, ˜{N}-[(3˜{S},4˜{S})-4-fluoro-3-piperidyl]-7-methoxy-1-methyl-2-[(2˜{R},5˜{R},8˜{R})-2-methyl-4-oxo-3,14,20-triazatetracyclo[12.5.2.0^{5,8}.0^{17,21}]henicosa-1(20),15,17(21),18-tetraen-15-yl]benzimidazole-5-carboxamide], 82 nM.

In the case of `COc1cc(C(=O)N2C[C@H](N)[C@@H]3CC[C@H]2C3)cc2nc(-c3cc4ccc5nc4n3CCCCCC[C@@](F)(c3ccccn3)C(=O)N[C@@H]5C)n(C3CC3)c12` (single isomer, unassigned) [Example 944, (8˜{R},11˜{R})-17-[5-[(1˜{S},4˜{R},5˜{R})-4-amino-2-azabicyclo[3.2.1]octane-2-carbonyl]-1-cyclopropyl-7-methoxy-benzimidazol-2-yl]-8-fluoro-11-methyl-8-(2-pyridyl)-1,10,19-triazatricyclo[10.5.2.0^{15,18}]nonadeca-12(19),13,15(18),16-tetraen-9-one], the concentration for half-maximal inhibition (IC50) turned out to be 64 nM. For `COc1cc(C(=O)N2C[C@H](N)[C@@H]3CC[C@H]2C3)cc2nc(-c3cc4ccc5nc4n3CCCCCC[C@](F)(c3ccccn3)C(=O)N[C@@H]5C)n(C3CC3)c12` (single isomer, unassigned) [Example 945, (8˜{S},11˜{R})-17-[5-[(1˜{S},4˜{R},5˜{R})-4-amino-2-azabicyclo[3.2.1]octane-2-carbonyl]-1-cyclopropyl-7-methoxy-benzimidazol-2-yl]-8-fluoro-11-methyl-8-(2-pyridyl)-1,10,19-triazatricyclo[10.5.2.0^{15,18}]nonadeca-12(19),13,15(18),16-tetraen-9-one], the IC50 amounted to 34 nM.

`COc1cc(C(=O)N2CCC[C@@H](N)C2)cc2nc(-c3cc4ccc5nc4n3CCCCCC[C@@](C)(C(F)(F)F)C(=O)N[C@@H]5C)n(C)c12` [Example 1, (8~{R},11~{R})-17-[5-[(3~{R})-3-aminopiperidine-1-carbonyl]-7-methoxy-1-methyl-benzimidazol-2-yl]-8,11-dimethyl-8-(trifluoromethyl)-1,10,19-triazatricyclo[10.5.2.0^{15,18}]nonadeca-12(19),13,15(18),16-tetraen-9-one]: the 50% inhibitory concentration (IC50) was found to be 104 nM. Consider `COc1cc(C(=O)N2CCC[C@@H](N)C2)cc2nc(-c3cc4ccc5nc4n3CCCCCC[C@](C)(C(F)(F)F)C(=O)N[C@@H]5C)n(C)c12` [Example 4, (8~{S},11~{R})-17-[5-[(3~{R})-3-aminopiperidine-1-carbonyl]-7-methoxy-1-methyl-benzimidazol-2-yl]-8,11-dimethyl-8-(trifluoromethyl)-1,10,19-triazatricyclo[10.5.2.0^{15,18}]nonadeca-12(19),13,15(18),16-tetraen-9-one], for which the IC50 is 69 nM. The value for `COc1cc(C(=O)N2C[C@H](N)CC[C@@H]2C)cc2nc(-c3cc4ccc5nc4n3CCCCCCC(C)(C)C(=O)N[C@@H]5C)n(C)c12` [Example 5, (11~{R})-17-[5-[(2~{S},5~{R})-5-amino-2-methyl-piperidine-1-carbonyl]-7-methoxy-1-methyl-benzimidazol-2-yl]-8,8,11-trimethyl-1,10,19-triazatricyclo[10.5.2.0^{15,18}]nonadeca-12(19),13,15(18),16-tetraen-9-one] was 76 nM; that for `COc1cc(C(=O)N2CC[C@@H](OC(F)F)[C@@H](N)C2)cc2nc(-c3cc4ccc5nc4n3CCCCC[C@@H]3C[C@H]3C(=O)N[C@@H]5C)n(C)c12` [Example 6, (2~{R),5~{R},7~{R})-14-[5-[(3~{S},4~{R})-3-amino-4-(difluoromethoxy)piperidine-1-carbonyl]-7-methoxy-1-methyl-benzimidazol-2-yl]-2-methyl-3,13,19-triazatetracyclo[11.5.2.0^{5,7}.0^{16,20}] icosa-1(19),14,16(20),17-tetraen-4-one] was 105 nM; that for `COc1cc(C(=O)N2CC[C@@H](OC(F)F)[C@@H](N)C2)cc2nc(-c3cc4ccc5nc4n3CCCCCc3nccnc3C(=O)N[C@@H]5C)n(C)c12` [Example 7, (2~{R})-17-[5-[(3~{S},4~{R})-3-amino-4-(difluoromethoxy)piperidine-1-carbonyl]-7-methoxy-1-methyl-benzimidazol-2-yl]-2-methyl-3,6,9,16,22-pentazatetracyclo[14.5.2.0^{5,10}.0^{19, 23}]tricosa-1(22),5(10),6,8,17,19(23),20-heptaen-4-one] was 101 nM. With `COc1cc(C(=O)N2[C@H]3CC[C@@H]2[C@H](N)C3)cc2nc(-c3cc4ccc5nc4n3C[C@H]3CC[C@H]3COCCC(=O)N[C@@H]5C)c(C)n12` [Example 8, (3~{S},6~{R},13~{R})-19-[7-[(1~{R},2~{R},4~{S})-2-amino-7-azabicyclo[2.2.1]heptane-7-carbonyl]-5-methoxy-3-methyl-imidazo[1,2-a]pyridin-2-yl]-13-methyl-8-oxa-1,12,21-triazatetracyclo[12.5.2.0^{3,6}.0^{17,20}] henicosa-14(21),15,17(20),18-tetraen-11-one], the IC50 came out at 71 nM. For the compound `COc1cc(C(=O)N2[C@H]3CC[C@@H]2[C@H](N)C3)cc2nc(-c3cc4ccc5nc4n3C[C@@H]3CC[C@@H]3COCCC(=O)N[C@@H]5C)c(C)n12` [Example 9, (3~{R},6~{S},13~{R})-19-[7-[(1~{R},2~{R},4~{S})-2-amino-7-azabicyclo[2.2.1]heptane-7-carbonyl]-5-methoxy-3-methyl-imidazo[1,2-a]pyridin-2-yl]-13-methyl-8-oxa-1,12,21-triazatetracyclo[12.5.2.0^{3,6}.0^{17,20}] henicosa-14(21),15,17(20),18-tetraen-11-one], the IC50 is 53 nM.
